Source: patent US8697694B2, “Substituted pyridine and pyrimidine derivatives and their use in treating viral infections” (priority 2008, dated 2014)

test system: HCV replicon cells; assay: Cell-based HCV replicon assay (replicon RNA level by real time PCR, Taqman); conditions: Hepatitis C virus, 72 h, HCV replicon cells, harvested day 3, replicon RNA by real time PCR; given as number; read-out: EC90 (μM) range
Procedure: Assays Cell-Based HCV Replicon Assay
To measure cell-based anti-HCV activity of the compounds of the present invention, replicon cells were seeded at 5000 cells/well in 96-well collagen I-coated Nunc plates in the presence of the compound of the invention. Various concentrations of a compound of the invention, typically in 10 serial 2-fold dilutions, were added to the assay mixture, the starting concentration of the compound ranging from 25 μM to 1 μM. The final concentration of DMSO was 0.5%, fetal bovine serum was 10%, in the assay media. Cells were harvested on day 3 by the addition of 1× cell lysis buffer (Ambion cat #8721). The replicon RNA level was measured using real time PCR (Taqman assay). The amplicon was located in 5B. The PCR primers were: 5B.2F, ATGGACAGGCGCCCTGA (SEQ. ID NO. 1); 5B.2R, […] (SEQ. ID NO. 2); the probe sequence was FAM-labeled CACGCCATGCGCTGCGG (SEQ. ID NO. 3). GAPDH RNA was used as endogenous control and was amplified in the same reaction as NS5B (multiplex PCR) using primers and VIC-labeled probe recommended by the manufacturer (PE Applied Biosystem). The real-time RT-PCR reactions were run on ABI PRISM 7900HT Sequence Detection System using the following program: 48′C for 30 min, 95° C. for 10 min, 40 cycles of 95° C. for 15 sec, 60° C. for 1 min. The ΔCT values (CT5B-CTGAPDH) were plotted against the concentration of test compound and fitted to the sigmoid dose-response model using GraphPad PRISM software. EC50 was defined as the concentration of inhibitor necessary to achieve ΔCT=1 over the projected baseline; EC90 the concentration necessary to achieve ΔCT=3.2 over the baseline. Alternatively, to quantitate the absolute amount of replicon RNA, a standard curve was established by including serially diluted T7 transcripts of replicon RNA in the Taqman assay. All Taqman reagents were from PE Applied Biosystems. Such an assay procedure was described in detail in e.g. Malcolm et al., Antimicrobial Agents and Chemotherapy 50: 1013-1020 (2006).
HCV Replicon assay data for compounds of the invention that were tested was obtained using the above method. Calculated EC90 values are reported for each compound in Table I as a falling within the following ranges: […]

Compound	EC90
CCC(CC)Oc1cc2cc(-c3c(C)nc(NCC4CC4)nc3N[C@@H]3C[C@H](CO)[C@@H](O)[C@H]3O)oc2c(C)n1 [Example 44]	> 25 µM
Cc1nc(NCC2CC2)nc(N[C@@H]2C[C@H](CO)[C@@H](O)[C@H]2O)c1-c1cc2cc(OCC(C)(C)C)nc(C)c2o1 [Example 45]	> 25 µM
Cc1nc(NCC(C)(C)C)nc(N[C@@H]2C[C@H](CO)[C@@H](O)[C@H]2O)c1-c1cc2cc(OCC(F)(F)F)nc(C)c2o1 [Example 46]	0.85 µM
Cc1nc(NCC2CC2)nc(N[C@@H]2C[C@H](CO)[C@@H](O)[C@H]2O)c1-c1cc2cc(OCC(F)(F)F)nc(C)c2o1 [Example 47]	0.4 µM
CCC(CC)Oc1cc2cc(-c3c(C)nc(NCCOC)nc3N[C@@H]3C[C@H](CO)[C@@H](O)[C@H]3O)oc2c(C)n1 [Example 48]	> 25 µM
COCCNc1nc(C)c(-c2cc3cc(OCC(C)(C)C)nc(C)c3o2)c(N[C@@H]2C[C@H](CO)[C@@H](O)[C@H]2O)n1 [Example 49]	> 25 µM
CCOc1cc2cc(-c3c(C)nc(NCc4c(F)cccc4F)nc3N[C@@H]3C[C@H](CO)[C@@H](O)[C@H]3O)oc2c(C)n1 [Example 50]	0.05 µM
CCOc1cc2cc(-c3c(C)nc(NCC4CC4)nc3N[C@@H]3C[C@H](CO)[C@@H](O)C3)oc2c(C)n1 [Example 52]	0.3 µM
Cc1nc(NCC(F)(F)F)nc(N[C@H]2C[C@H](O)[C@@H]3C[C@@H]32)c1-c1nc2ccccc2s1 [Example 53]	2.1 µM
Cc1nc(NCC(F)(F)F)nc(N[C@@H]2CC[C@@H](O)C2)c1-c1nc2ccccc2s1 [Example 54]	1 µM
CON=C1[C@H](Nc2nc(NCC(F)(F)F)nc(C)c2-c2nc3ccccc3s2)C[C@H](CO)[C@H]1O [Example 55]	3.4 µM
COc1cc(CNc2nc(C)c(-c3cc4cc(OCC5CC5)ncc4o3)c(N[C@@H]3C[C@H](CO)[C@@H](O)[C@H]3O)n2)cc(OC)c1 [Example 56]	0.06 µM
Cc1nc(NCC(C)(C)C)nc(N[C@@H]2C[C@H](CO)[C@@H](O)[C@H]2O)c1-c1cc2cc(OCC3CC3)ncc2o1 [Example 58]	1 µM
COCCNc1nc(C)c(-c2cc3cc(OCC4CC4)ncc3o2)c(N[C@@H]2C[C@H](CO)[C@@H](O)[C@H]2O)n1 [Example 59]	2 µM
CCCOc1cc2cc(-c3c(C)nc(NCC(C)(C)C)nc3N[C@@H]3C[C@H](CO)[C@@H](O)[C@H]3O)oc2cn1 [Example 61]	> 1 µM
CCCOc1cc2cc(-c3c(C)nc(NCC4CC4)nc3N[C@@H]3C[C@H](CO)[C@@H](O)[C@H]3O)oc2cn1 [Example 62]	0.7 µM
Cc1nc(NCC(F)(F)F)nc(N[C@@H]2C[C@H](COC(=O)N3CCOCC3)[C@@H](O)[C@H]2O)c1-c1nc2ccccc2s1 [Example 63]	0.45 µM
Cc1nc(NCC(F)(F)F)nc(N[C@@H]2C[C@H](COC(=O)N3CCCC3)[C@@H](O)[C@H]2O)c1-c1nc2ccccc2s1 [Example 64]	0.8 µM
CCN(CC)C(=O)OC[C@H]1C[C@@H](Nc2nc(NCC(F)(F)F)nc(C)c2-c2nc3ccccc3s2)[C@H](O)[C@@H]1O [Example 65]	1 µM
CNC(=O)OC[C@H]1C[C@@H](Nc2nc(NCC(F)(F)F)nc(C)c2-c2nc3ccccc3s2)[C@H](O)[C@@H]1O [Example 66]	0.85 µM
Cc1nc(NCCCF)nc(N[C@@H]2C[C@H](CO)[C@@H](O)[C@H]2O)c1-c1nc2ccccc2s1 [Example 127]	0.7 µM

same assay, conditions: Hepatitis C virus, 72 h, HCV replicon cells, harvested day 3, replicon RNA by real time PCR; reported as range class; read-out: EC90 (μM) range

Compound	EC90
CCCOc1cc2cc(-c3c(C)nc(NCCOC)nc3N[C@@H]3C[C@H](CO)[C@@H](O)[C@H]3O)oc2cn1 [Example 60]	> 5 µM
Nc1nc(Cl)c(-c2ccc(Oc3ccccc3)cc2)c(N[C@@H]2C[C@H](CO)[C@@H](O)[C@H]2O)n1 [Example 101]	> 5 µM
Nc1nc(Cl)c(-c2cc3ccccc3s2)c(N[C@@H]2C[C@H](CO)[C@@H](O)[C@H]2O)n1 [Example 102]	> 5 µM
Nc1nc(Cl)c(-c2ccccc2Oc2ccccc2)c(N[C@@H]2C[C@H](CO)[C@@H](O)[C@H]2O)n1 [Example 103]	> 5 µM
Nc1nc(Cl)c(-c2nccs2)c(N[C@@H]2C[C@H](CO)[C@@H](O)[C@H]2O)n1 [Example 104]	> 5 µM
Nc1nc(Cl)c(-c2nc3ccccc3s2)c(N[C@@H]2C[C@H](CO)[C@@H](O)[C@H]2O)n1 [Example 105]	< 0.5 µM
Nc1nc(Cl)c(-c2ncco2)c(N[C@@H]2C[C@H](CO)[C@@H](O)[C@H]2O)n1 [Example 106]	> 5 µM
Nc1nc(N[C@@H]2C[C@H](CO)[C@@H](O)[C@H]2O)c(-c2ncco2)c(-c2ncco2)n1 [Example 107]	> 5 µM
Nc1nc(Cl)c(-c2cc3cc(C(F)(F)F)ccc3o2)c(N[C@@H]2C[C@H](CO)[C@@H](O)[C@H]2O)n1 [Example 108]	> 5 µM
Nc1nc(Cl)c(-c2nc3ccccc3o2)c(N[C@@H]2C[C@H](CO)[C@@H](O)[C@H]2O)n1 [Example 109]	< 0.5 µM
Nc1nc(Cl)c(-c2nc3ccc(F)cc3s2)c(N[C@@H]2C[C@H](CO)[C@@H](O)[C@H]2O)n1 [Example 110]	0.5 to 5 µM
Nc1nc(Cl)c(-c2nc3cc(C(F)(F)F)ccc3s2)c(N[C@@H]2C[C@H](CO)[C@@H](O)[C@H]2O)n1 [Example 112]	0.5 to 5 µM
Nc1ncc(-c2cc3ccncc3o2)c(N[C@@H]2C[C@H](CO)[C@@H](O)[C@H]2O)n1 [Example 113]	0.5 to 5 µM
CN(C)c1ccc2nc(-c3c(Cl)nc(N)nc3N[C@@H]3C[C@H](CO)[C@@H](O)[C@H]3O)sc2c1 [Example 115]	> 5 µM
OC[C@H]1C[C@@H](Nc2nc(N3CCOCC3)nc(Cl)c2-c2nc3ccccc3s2)[C@H](O)[C@@H]1O [Example 116]	0.5 to 5 µM
CN(C)c1nc(Cl)c(-c2nc3ccccc3o2)c(N[C@@H]2C[C@H](CO)[C@@H](O)[C@H]2O)n1 [Example 117]	0.5 to 5 µM
OC[C@H]1C[C@@H](Nc2ncnc(Cl)c2-c2nc3ccccc3s2)[C@H](O)[C@@H]1O [Example 118]	> 5 µM
Cc1nc(N)nc(N[C@@H]2C[C@H](CO)[C@@H](O)[C@H]2O)c1-c1nc2ccccc2s1 [Example 119]	< 0.5 µM
COC[C@H]1C[C@@H](Nc2nc(N(C)C)nc(Cl)c2-c2nc3ccccc3s2)[C@@H]2OC(C)(C)O[C@H]12 [Example 120]	> 5 µM
COC[C@H]1C[C@@H](Nc2nc(N(C)C)nc(Cl)c2-c2nc3ccccc3s2)[C@H](O)[C@@H]1O [Example 121]	< 0.5 µM
COC[C@H]1C[C@@H](Nc2nc(N(C)C)nc(C)c2-c2nc3ccccc3s2)[C@H](O)[C@@H]1O [Example 123]	> 5 µM
OC[C@H]1C[C@@H](Nc2nc(NCC(F)(F)F)nc(Cl)c2-c2nc3ccccc3s2)[C@H](O)[C@@H]1O [Example 124]	< 0.5 µM
Cc1nc(NCC(F)(F)F)nc(N[C@@H]2C[C@H](CO)[C@@H](O)[C@H]2O)c1-c1nc2ccccc2s1 [Example 125]	< 0.5 µM
OC[C@H]1C[C@@H](Nc2nc(NCCCF)nc(Cl)c2-c2nc3ccccc3s2)[C@H](O)[C@@H]1O [Example 126]	< 0.5 µM

same assay, conditions: Hepatitis C virus, 72 h, HCV replicon cells, harvested on day 3, replicon RNA by real time PCR; calculated EC90 reported as range class; read-out: EC90 (μM) range

Compound	EC90
OC[C@H]1C[C@@H](Nc2nc(NCC(F)(F)F)nc(C3CC3)c2-c2nc3ccccc3s2)[C@H](O)[C@@H]1O [Example 128]	> 5 µM
OC[C@H]1C[C@@H](Nc2nc(NC(CF)CF)nc(Cl)c2-c2nc3ccccc3s2)[C@H](O)[C@@H]1O [Example 129]	< 0.5 µM
Cc1nc(NC(CF)CF)nc(N[C@@H]2C[C@H](CO)[C@@H](O)[C@H]2O)c1-c1nc2ccccc2s1 [Example 130]	> 5 µM
C[C@H](Nc1nc(Cl)c(-c2nc3ccccc3s2)c(N[C@@H]2C[C@H](CO)[C@@H](O)[C@H]2O)n1)C(F)(F)F [Example 131]	< 0.5 µM
Cc1nc(N[C@@H](C)C(F)(F)F)nc(N[C@@H]2C[C@H](CO)[C@@H](O)[C@H]2O)c1-c1nc2ccccc2s1 [Example 132]	0.5 to 5 µM
CCOCCNc1nc(C)c(-c2nc(C)c(C)s2)c(N[C@@H]2C[C@H](CO)[C@H]3OC(C)(C)O[C@H]32)n1 [Example 133]	> 5 µM
CCOCCNc1nc(C)c(-c2cc3cc(C(F)(F)F)ncc3o2)c(N[C@@H]2C[C@H](CO)[C@H]3OC(C)(C)O[C@H]32)n1 [Example 134]	> 5 µM
COCCNc1nc(C)c(-c2cc3cc(C(F)(F)F)ncc3o2)c(N[C@@H]2C[C@H](CO)[C@H]3OC(C)(C)O[C@H]32)n1 [Example 135]	> 5 µM
Cc1nc(NC(CF)CF)nc(N[C@@H]2C[C@H](CO)[C@H]3OC(C)(C)O[C@H]32)c1-c1nc2ccccc2s1 [Example 136]	0.5 to 5 µM
